One data set has as its system L1210 cells. Kind of data set: L1210 cell growth inhibition. To be noted: Mus musculus. In kind it is cell-based.
For data set [1], the system named is Polyamine pools in L1210 cells. Kind of data set: Effect on polyamine pools in L1210 cells. To be noted: 48 h of treatment. It is filed as cell-based.
The conditions of data set [2]: mice, three weeks after a seven day schedule; cited from earlier work.
Data set [3] concerns Polyamine pools in L1210 cells. To be noted: 48 h of treatment, cited from earlier work.

SMILES strings stand for the structures. Like-named read-outs stand apart in the source and are kept apart here.

Regarding `CCNCCCNCCC(N)CNCCCNCC` (stereo not shown) [6-NH2-DESPM, 6 amino-N^1,N^12-diethylspermine], the IC50 with L1210 cells (48 h, read-out: IC50 48 h) was found to be 8 µM. In addition, the IC50 in the data set with L1210 cells (96 h, read-out: IC50 96 h) was found to be 0.4 µM. Further, in data set [1] (10 µM), the PUT is recorded as 39 ± 9% of untreated controls, the SPD is reported as 16 ± 3% of untreated controls and the SPM was 54 ± 11% of untreated controls. In addition, in data set [1] (50 µM), the PUT is on record as 26 ± 1% of untreated controls, the SPD was 7 ± 0% of untreated controls and the SPM is 32 ± 1% of untreated controls.
Take `CCNCCCCNCCCCNCCCCNCC` [DEHSPM, Diethylhomospermine]: in data set [2], the “drug administered remaining in the liver and kidney as drug or metabolites” value is recorded as 35%; the “drug remaining in the animal in the form of HSPM” value is 90%.
Turning to `CCNCCCNCCCCNCCCNCC` [DESPM], in data set [3] (30 µM), the PUT is 0% of untreated controls, the SPD was 0% of untreated controls and the SPM was 12% of untreated controls. Further, in data set [3] (150 µM), the PUT was 0% of untreated controls, the SPD is on record as 0% of untreated controls and the SPM is 14% of untreated controls.
As to `FC(F)(F)CNCCCNCCCCNCCCNCC(F)(F)F` [FDESPM], in data set [3] (100 µM), the PUT is on record as 100% of untreated controls, the SPD is reported as 103% of untreated controls and the SPM is on record as 108% of untreated controls.

By IC50 is commonly meant the concentration at which inhibition is half-maximal.

Source of the values: patent US7423182B2, “Aminated polyamines” (University of Florida, priority 2004, dated 2008).
